According to ChEMBL document CHEMBL5661943, “ASAP - In vitro antiviral effect” (2024):

What was measured:
[1] = system: Zika virus; assay: Functional CPE-based assay to measure dose dependent changes in antiviral-drug inhibitory efficacy against Zika virus MR766 in Vero E6 miRFP670 cells. Cells are treated with antiviral candidates that are serially diluted. EC50 is reported via analysis of MTS assay as a readout of CPE. The assay has been performed by KU Leuven.; assay type: organism-based, Chlorocebus sabaeus, Vero C1008; conditions: Zika virus
[2] = system: dengue virus type 2; assay: Functional assay to measure dose dependent changes in antiviral-drug inhibitory efficacy against Dengue virus type 2 New Guinea C in Vero E6 miRFP670 cells (cotreated with P-gp inhibitor, CP100356). Cells are treated with antiviral candidates that are serially diluted, following infection, cells are fixed. EC50 is reported via analysis of fluorescence intensity using high-content imager. The …; assay type: organism-based, Chlorocebus sabaeus, Vero C1008; conditions: Dengue virus
[3] = system: Zika virus; assay: EC50 is reported via analysis of immunofluorescence staining. The assay has been performed by Icahn School of Medicine at Mount Sinai.; assay type: functional, organism-based, Chlorocebus sabaeus, VeroE6/TMPRSS2; conditions: for EC90: Baseline response 0 %, P-gp concentration 2 uM, P-gp inhibitor Elacidar
[4] = system: dengue virus type 2; assay: Functional immunofluorescence assay to measure dose dependent changes in antiviral-drug inhibitory efficacy against Dengue virus type 2 Thailand/16681/84 in Vero E6/TMPRSS2 cells (cotreated with P-gp inhibitor, Elacridar). Cells are treated with antiviral candidates that are serially diluted, following infection, cells are fixed. EC50 is reported via analysis of immunofluorescence staining. The assay has been performed by Icahn School of Medicine at Mount Sinai.; assay type: organism-based, Chlorocebus sabaeus, VeroE6/TMPRSS2; conditions: for EC90: P-gp concentration 2 uM, P-gp inhibitor Elacidar
[5] = system: Zika virus; assay: Functional CPE-based assay to measure dose dependent changes in antiviral-drug inhibitory efficacy against Zika virus MR766 in Vero E6 miRFP670 cells (cotreated with P-gp inhibitor, CP100356). Cells are treated with antiviral candidates that are serially diluted. EC50 is reported via analysis of MTS assay as a readout of CPE. The assay has been performed by KU Leuven.; assay type: organism-based, Chlorocebus sabaeus, Vero C1008; conditions: Zika virus, Vero C1008; for EC90: Baseline response 0 %, Maximum response 100 %, P-gp concentration 500 nM, P-gp inhibitor CP100356

## NCc1cc(Cl)cc(C(=O)Nc2ccc3c(c2)CNC3)c1
[1]; Vero C1008
  EC50: > 50 µM
[1]; Vero C1008, Maximum measured 0.38 %, Minimum measured -0.268 %
  EC90: > 50 µM
[2]; Vero C1008
  EC50: > 50 µM
[2]; Vero C1008, Maximum measured 110.007 %, Minimum measured 106.028 %, P-gp concentration 500 nM, P-gp inhibitor CP100356
  EC90: > 50 µM

## NCc1cccc(NC(=O)[C@@H](NC(=O)OCc2ccccc2)c2ccc(-c3cc4cccnc4s3)cc2)c1
[1]; Vero C1008
  EC50: > 50 µM
[1]; Vero C1008, Baseline response 0 %, Hill slope 2.61, Maximum measured 41.685 %, Maximum response 100 %, Minimum measured -5.482 %, R squared 0.949
  EC90: > 50 µM
[2]; Vero C1008
  EC50: > 50 µM
[2]; Vero C1008, Baseline response 0 %, Hill slope -1.813, Maximum measured 108.419 %, Maximum response 100 %, Minimum measured 62.17 %, P-gp concentration 500 nM, R squared 0.703, P-gp inhibitor CP100356
  EC90: > 50 µM

## O=C(Nc1ccc(C2CNC2)cc1)c1cc(Cl)cc2[nH]ncc12
[1]; Vero C1008
  EC50: > 50 µM
[1]; Vero C1008, Maximum measured 1.247 %, Minimum measured -2.682 %
  EC90: > 50 µM
[2]; Vero C1008
  EC50: 8.78 µM
[2]; Vero C1008, Baseline response 0 %, EC90 CI (lower) 1.814 uM, EC90 CI (upper) 3.53 uM, Hill slope -1.767, Maximum measured 103.682 %, Maximum response 100 %, Minimum measured 12.273 %, P-gp concentration 500 nM, R squared 0.972, P-gp inhibitor CP100356
  EC90: 30.4 µM

## CCNC(=O)Nc1cc(Cl)cc(C(=O)Nc2ccc3c(c2)CNCCO3)c1
[1]; Vero C1008
  EC50: > 50 µM
[1]; Vero C1008, Baseline response 0 %, Hill slope 2.475, Maximum measured 7.686 %, Maximum response 100 %, Minimum measured -0.684 %, R squared 0.693
  EC90: > 50 µM
[2]; Vero C1008
  EC50: > 25 µM
[2]; Vero C1008, Maximum measured 150.987 %, Minimum measured 108.938 %, P-gp concentration 500 nM, P-gp inhibitor CP100356
  EC90: > 25 µM

## O=C(Nc1cc(Cl)cc(-c2cccc3c(C(=O)O)cccc23)c1)OCc1ccccc1
[1]; Vero C1008
  EC50: > 50 µM
[1]; Vero C1008, Maximum measured -0.778 %, Minimum measured -5.402 %
  EC90: > 50 µM

## COc1cc(-c2cc(Cl)cc(NC(=O)OCc3ccccc3)c2)c(OC)cc1CC(=O)O
[1]; Vero C1008
  EC50: > 50 µM
[1]; Vero C1008, Baseline response 0 %, Hill slope 0.25, Maximum measured 21.22 %, Maximum response 100 %, Minimum measured 1.079 %, R squared 0.113
  EC90: > 50 µM

## C=CC[C@H](Nc1ccc(-c2nn[nH]n2)cc1)c1cc(Cl)cc(NC(=O)OCc2ccccc2)c1
[1]; Vero C1008
  EC50: 13.7 µM
[1]; Vero C1008, Baseline response 0 %, EC90 CI (lower) 0 uM, EC90 CI (upper) -3.27181e+18 uM, Hill slope 17.95, Maximum measured 103.91 %, Maximum response 100 %, Minimum measured 1.446 %, R squared 0.986
  EC90: 15.5 µM
[2]; Vero C1008
  EC50: 1.84 µM
[2]; Vero C1008, Baseline response 0 %, EC90 CI (lower) 0.301 uM, EC90 CI (upper) 0.468 uM, Hill slope -1.382, Maximum measured 87.879 %, Maximum response 100 %, Minimum measured 3.84 %, P-gp concentration 500 nM, R squared 0.99, P-gp inhibitor CP100356
  EC90: 9.02 µM

## O=C(Nc1cc(Cl)cc(C(=O)Nc2cccc([C@H]3C[C@H]3C(=O)O)c2)c1)OCc1ccccc1
[1]; Vero C1008
  EC50: > 50 µM
[1]; Vero C1008, Baseline response 0 %, Hill slope 7.946, Maximum measured 10.264 %, Maximum response 100 %, Minimum measured -1.789 %, R squared 0.722
  EC90: > 50 µM
[2]; Vero C1008
  EC50: > 50 µM
[2]; Vero C1008, Maximum measured 111.056 %, Minimum measured 105.114 %, P-gp concentration 500 nM, P-gp inhibitor CP100356
  EC90: > 50 µM

## NCc1cccc(NC(=O)c2cc(Cl)cc(C3CC3)c2)c1
[1]; Vero C1008
  EC50: 15.7 µM
[1]; Vero C1008, Baseline response 0 %, EC90 CI (lower) 20.759 uM, EC90 CI (upper) 27.074 uM, Hill slope 5.361, Maximum measured 91.947 %, Maximum response 100 %, Minimum measured -3.838 %, R squared 0.99
  EC90: 23.7 µM
[2]; Vero C1008
  EC50: 21.6 µM
  EC90: 24.7 µM

## O=C(Nc1cc(Cl)cc(C(=O)Nc2ccc3c(c2)CNCC3)c1)OCc1ccccc1
[1]; Vero C1008
  EC50: < 0.391 µM
[1]; Vero C1008, Baseline response 0 %, Hill slope -0.286, Maximum measured 50.319 %, Maximum response 100 %, Minimum measured -3.545 %, R squared 0.037
  EC90: < 0.391 µM
[2]; Vero C1008
  EC50: 1.52 µM
  EC90: 1.8 µM

## NCc1cccc(NC(=O)c2cc(Cl)cc3c2cnn3CC2CC2)c1
[1]; Vero C1008
  EC50: > 50 µM
[1]; Vero C1008, Baseline response 0 %, Hill slope 0.179, Maximum measured 64.548 %, Maximum response 100 %, Minimum measured -3.549 %, R squared 0.025
  EC90: > 50 µM
[2]; Vero C1008
  EC50: 12.4 µM
  EC90: > 12.5 µM

## CC(C)(C)c1cc(Br)cc(C(=O)Nc2ccc3c(c2)CNC3)c1
[1]; Vero C1008
  EC50: > 50 µM
[1]; Vero C1008, Baseline response 0 %, Hill slope -3.526, Maximum measured 2.777 %, Maximum response 100 %, Minimum measured -2.992 %, R squared 0.044
  EC90: > 50 µM

## CC(C)c1cc(Br)cc(C(=O)Nc2ccc3c(c2)CNC3)c1
[1]; Vero C1008
  EC50: > 50 µM
[1]; Vero C1008, Baseline response 0 %, Hill slope -0.823, Maximum measured 6.311 %, Maximum response 100 %, Minimum measured -3.726 %, R squared 0.279
  EC90: > 50 µM

## O=C(Nc1cc(Cl)cc([C@H]2[C@H](CO)[C@@H]2c2cccc(-c3nn[nH]n3)c2)c1)OCc1ccccc1
[1]; Vero C1008
  EC50: > 50 µM
[1]; Vero C1008, Baseline response 0 %, Hill slope -0.077, Maximum measured 3.793 %, Maximum response 100 %, Minimum measured 1.644 %, R squared 0.146
  EC90: > 50 µM

## O=C(Nc1ccc2c(c1)CNCC2)c1cc(Cl)cc2[nH]ncc12
[1]; Vero C1008
  EC50: > 50 µM
[1]; Vero C1008, Maximum measured 0.588 %, Minimum measured -2.808 %
  EC90: > 50 µM

## CN1Cc2ccc(NC(=O)c3cc(Cl)cc4[nH]ncc34)cc2C1
[1]; Vero C1008
  EC50: > 50 µM
[1]; Vero C1008, Baseline response 0 %, Hill slope -0.359, Maximum measured 1.713 %, Maximum response 100 %, Minimum measured -2.397 %, R squared 0.026
  EC90: > 50 µM

## N#C[C@H](Nc1cncc(-c2nn[nH]n2)c1)c1cc(Cl)cc(NC(=O)OCc2ccccc2)c1
[1]; Vero C1008
  EC50: > 50 µM
[1]; Vero C1008, Baseline response 0 %, Hill slope -0.546, Maximum measured 2.599 %, Maximum response 100 %, Minimum measured -1.254 %, R squared 0.412
  EC90: > 50 µM

## O=C(Nc1ccc2c(c1)CNC2)c1cc(Cl)cc2ccncc12
[3]; EC90 CI (lower) 0.484 uM, EC90 CI (upper) 78.893 uM, Hill slope -5.004, Maximum measured 134.979 %, Maximum response 50 %, Minimum measured 2.857 %, R squared 0.323
  EC90: 14.9 µM
[3]; Zika virus, VeroE6/TMPRSS2
  EC50: 16.1 µM
[3]; Zika virus, VeroE6/TMPRSS2, Hill slope -17.627, Maximum measured 65.213 %, Maximum response 47.14 %, Minimum measured 8.096 %, R squared 0.51
  EC90: 18.3 µM
[3]; veroe6/tmprss2
  EC50: 9.59 µM
[4]; Dengue virus, VeroE6/TMPRSS2
  EC50: > 50 µM
[4]; Dengue virus, VeroE6/TMPRSS2, Maximum measured 58.239 %, Minimum measured 35.466 %
  EC90: > 50 µM
[4]; Dengue virus, VeroE6/TMPRSS2, Baseline response 0 %, Hill slope -1.704, Maximum measured 164.443 %, Maximum response 150 %, Minimum measured 48.079 %, R squared 0.653
  EC90: > 50 µM
[4]; veroe6/tmprss2
  EC50: 29.3 µM
[5]
  EC50: 3.67 µM
[5]; EC90 CI (lower) 1.242 uM, EC90 CI (upper) 28.049 uM, Hill slope 4.622, Maximum measured 165.724 %, Minimum measured 0.965 %, R squared 0.715
  EC90: 5.9 µM
[2]; Vero C1008
  EC50: 41.2 µM
[2]; Vero C1008, Baseline response 0 %, Hill slope -2.845, Maximum measured 98.374 %, Maximum response 100 %, Minimum measured 34.264 %, P-gp concentration 500 nM, R squared 0.76, P-gp inhibitor CP100356
  EC90: > 50 µM

## Cn1cc2cc(Cl)cc(C(=O)Nc3ccc4c(c3)CNC4)c2n1
[3]; Zika virus, VeroE6/TMPRSS2
  EC50: 0.643 µM
[3]; Zika virus, VeroE6/TMPRSS2, Hill slope -0.814, Maximum measured 136.159 %, Maximum response 100 %, Minimum measured 33.863 %, R squared 0.555
  EC90: > 5.56 µM
[4]; Dengue virus, VeroE6/TMPRSS2
  EC50: > 5.56 µM
[4]; Dengue virus, VeroE6/TMPRSS2, Maximum measured 98.349 %, Minimum measured 47.733 %
  EC90: > 5.56 µM
[5]
  EC50: 0.514 µM
[5]; Hill slope 4.196, Maximum measured 85.26 %, Minimum measured 23.993 %, R squared 0.942
  EC90: > 0.781 µM
[2]; Vero C1008
  EC50: 0.704 µM
[2]; Vero C1008, Baseline response 0 %, Hill slope 0.764, Maximum measured 122.857 %, Maximum response 100 %, Minimum measured 34.33 %, P-gp concentration 500 nM, R squared 0.405, P-gp inhibitor CP100356
  EC90: < 0.391 µM
